Data as given in patent US20260184687A1, “DIHYDROINDENE DERIVATIVES AS MALT1 INHIBITORS” (C4X Discovery Limited, priority 2022, published 2026).
pIC50: −log10 of the molar value.

Target: T1, FL hMALT1 enzyme (Homo sapiens, UniProt Q9UDY8)
T1 sequence (Q9UDY8 1-824): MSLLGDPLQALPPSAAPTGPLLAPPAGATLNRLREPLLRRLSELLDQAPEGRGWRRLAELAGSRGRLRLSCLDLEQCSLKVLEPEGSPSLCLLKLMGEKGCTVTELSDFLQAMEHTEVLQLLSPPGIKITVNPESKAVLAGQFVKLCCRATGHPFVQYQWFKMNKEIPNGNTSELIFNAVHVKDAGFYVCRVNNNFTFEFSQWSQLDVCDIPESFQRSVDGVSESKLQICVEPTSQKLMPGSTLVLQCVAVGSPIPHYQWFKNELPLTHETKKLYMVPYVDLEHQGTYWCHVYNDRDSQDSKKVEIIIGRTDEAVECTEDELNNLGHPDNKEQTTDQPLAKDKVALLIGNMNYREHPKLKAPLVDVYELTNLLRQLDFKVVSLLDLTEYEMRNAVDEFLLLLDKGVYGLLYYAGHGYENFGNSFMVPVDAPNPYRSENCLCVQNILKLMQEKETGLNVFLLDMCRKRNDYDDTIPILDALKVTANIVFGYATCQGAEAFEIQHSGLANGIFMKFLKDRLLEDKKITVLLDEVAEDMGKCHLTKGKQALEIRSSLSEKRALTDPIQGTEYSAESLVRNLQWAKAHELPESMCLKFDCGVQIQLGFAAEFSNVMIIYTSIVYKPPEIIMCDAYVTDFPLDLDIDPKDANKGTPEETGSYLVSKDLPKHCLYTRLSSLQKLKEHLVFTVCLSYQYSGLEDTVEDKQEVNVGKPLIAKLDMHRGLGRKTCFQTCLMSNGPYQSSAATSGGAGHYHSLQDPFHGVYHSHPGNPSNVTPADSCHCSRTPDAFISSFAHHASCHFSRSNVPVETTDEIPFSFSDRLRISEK
Assay: biochemical
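Further: Cell-free protease assay: enzyme preincubated with compound 30 min at room temperature, then cleavage of fluorogenic Ac-LVSR-AMC substrate (100 µM) tracked by fluorescence (ex 360/em 460 nm).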

SMILES | pIC50
CN(C(=O)C1CCS(=O)(=O)CC1)[C@@H](c1ccc(NC2Cc3cc(Cl)c(OC(F)F)cc3C2)cn1)C(F)(F)F (stereo partly drawn) [Example 291, N-((1S)-1-(5-((5-Chloro-6-(difluoromethoxy)-2,3-dihydro-1H-inden-2-yl)amino)pyridin-2-yl)-2,2,2-trifluoroethyl)-N-methyltetrahydro-2H-thiopyran-4-carboxamide 1,1-dioxide] | 6.47
CN(C(=O)C1CCS(=O)(=O)CC1)[C@@H](c1ccc(NC2Cc3ccc(F)cc3C2)cn1)C(F)(F)F (single isomer, unassigned) [Example 259] | 6.74
CN(C(=O)C1CCNC(=O)C1)[C@@H](c1ccc(N[C@H]2Cc3ccc(Cl)cc3C2)cn1)C(F)(F)F (single isomer, unassigned) [Example 313] | 6.72
CN(C(=O)CC#N)[C@@H](c1ccc(NC2Cc3ccc(Cl)c(Cl)c3C2)cn1)C(F)(F)F (single isomer, unassigned) [Example 349] | 5.98
CN(C(=O)C1CS(=O)(=O)C1)[C@@H](c1ccc(NC2Cc3ccc(Cl)c(Cl)c3C2)cn1)C(F)(F)F (stereo partly drawn) [Example 355, N-((1S)-1-(5-((4,5-Dichloro-2,3-dihydro-1H-inden-2-yl)amino)pyridin-2-yl)-2,2,2-trifluoroethyl)-N-methylthietane-3-carboxamide 1,1-dioxide] | 6.82
COCCN1CCC12CC(C(=O)N(C)[C@@H](c1ccc(NC3Cc4ccccc4C3(C)C)cn1)C(F)(F)F)C2 (single isomer, unassigned) [Example 242] | 6.70
CN(C(=O)C1CCS(=O)(=O)CC1)[C@@H](c1ccc(NC2Cc3cc(Cl)cc(F)c3C2)cn1)C(F)(F)F (single isomer, unassigned) [Example 271] | 5.48
CN(C(=O)C1CCS(=O)(=O)CC1)[C@@H](c1ccc(NC2Cc3ccc(Cl)c(C(F)(F)F)c3C2)cn1)C(F)(F)F (single isomer, unassigned) [Example 311] | 6.52
CN(C(=O)C1CN(C(=O)CO)C1)[C@@H](c1ccc(NC2Cc3ccc(Cl)c(Cl)c3C2)cn1)C(F)(F)F (single isomer, unassigned) [Example 379] | 7.34
CNC(=O)N1CCC12CC(C(=O)N(C)[C@@H](c1ccc(NC3Cc4ccccc4C3(C)C)cn1)C(F)(F)F)C2 (single isomer, unassigned) [Example 238] | 6.33
CN(C(=O)[C@H]1C[C@]2(CCN2C)C1)[C@@H](c1ccc(NC2Cc3ccccc3C2(C)C)cn1)C(F)(F)F (single isomer, unassigned) [Example 158] | 6.36
Cc1ncc(C(=O)N(C)[C@@H](c2ccc(NC3Cc4ccc(Cl)c(F)c4C3)cn2)C(F)(F)F)cn1 (single isomer, unassigned) [Example 348] | 6.39
CC(=O)N1CCC[C@@H]1C(=O)N(C)[C@@H](c1ccc(N[C@H]2Cc3ccccc3C2(C)C)cn1)C(F)(F)F [Example 171, (R)-1-Acetyl-N—((S)-1-(5-(((S)-1,1-dimethyl-2,3-dihydro-1H-inden-2-yl)amino)pyridin-2-yl)-2,2,2-trifluoroethyl)-N-methylpyrrolidine-2-carboxamide] | 6.68
CN(C(=O)[C@H]1CCC(=O)NC1)[C@@H](c1ccc(NC2Cc3ccc(Cl)c(F)c3C2)nc1)C(F)(F)F (single isomer, unassigned) [Example 388] | 6.31
CN(C(=O)C1CCS(=O)(=O)CC1)[C@@H](c1ccc(NC2Cc3ccc(C(F)(F)F)cc3C2)cn1)C(F)(F)F (single isomer, unassigned) [Example 255] | 6.96
CN(C(=O)C1COCC(=O)N1)[C@@H](c1ccc(NC2Cc3ccccc3C2(C)C)cn1)C(F)(F)F (single isomer, unassigned) [Example 162] | 6.96

SMILES | pIC50
CN(C(=O)C1CCS(=O)(=O)CC1)[C@@H](c1ccc(NC2Cc3cccc(OC(F)F)c3C2)cn1)C(F)(F)F (stereo partly drawn) [Example 333, N-((1S)-1-(5-((4-(Difluoromethoxy)-2,3-dihydro-1H-inden-2-yl)amino)pyridin-2-yl)-2,2,2-trifluoroethyl)-N-methyltetrahydro-2H-thiopyran-4-carboxamide 1,1-dioxide] | 6.80
CN(C(=O)C1COCC(=O)N1)[C@@H](c1ccc(NC2Cc3ccccc3C2(C)C)cn1)C(F)(F)F (single isomer, unassigned) [Example 161] | 6.51
CN(C(=O)C1CCS(=O)(=O)CC1)[C@@H](c1ccc(NC2Cc3ccc(C4CC4)cc3C2)cn1)C(F)(F)F (single isomer, unassigned) [Example 308] | 5.85
CN(C(=O)[C@H]1C[C@H](O)C1)[C@@H](c1ccc(NC2Cc3ccc(Cl)c(F)c3C2)cn1)C(F)(F)F (single isomer, unassigned) [Example 375] | 5.88
CN(C(=O)CN1CCNC1=O)[C@@H](c1ccc(NC2Cc3ccccc3C2(C)C)cn1)C(F)(F)F (single isomer, unassigned) [Example 245] | 6.89
CN1CC(=O)NCC1C(=O)N(C)[C@@H](c1ccc(N[C@H]2Cc3ccccc3C2(C)C)cn1)C(F)(F)F (single isomer, unassigned) [Example 202] | 6.80
CN(C(=O)CO)[C@@H](c1ccc(NC2Cc3ccc(Cl)c(F)c3C2)cn1)C(F)(F)F (single isomer, unassigned) [Example 367] | 6.51
CN(C(=O)C1CCS(=O)(=O)CC1)[C@@H](c1ccc(NC2Cc3ccc(Cl)c(Cl)c3C2)nc1)C(F)(F)F (single isomer, unassigned) [Example 345] | 8.15
CN(C(=O)C1CN(C(=O)C2CCOC2)C1)[C@@H](c1ccc(NC2Cc3ccc(Cl)c(Cl)c3C2)cn1)C(F)(F)F (single isomer, unassigned) [Example 351] | 6.23
CN(C(=O)[C@H]1CCC(=O)NC1)[C@@H](c1ccc(NC2Cc3ccc(Cl)c(Cl)c3C2)cn1)C(F)(F)F (single isomer, unassigned) [Example 320] | 6.12
CN(C(=O)C1CC2(CNC2)C1)[C@@H](c1ccc(N[C@H]2Cc3ccccc3C2(C)C)cn1)C(F)(F)F [Example 173, N—((S)-1-(5-(((S)-1,1-Dimethyl-2,3-dihydro-1H-inden-2-yl)amino)pyridin-2-yl)-2,2,2-trifluoroethyl)-N-methyl-2-azaspiro[3.3]heptane-6-carboxamide] | 6.89
CN(C(=O)[C@H]1CNC(=O)C1)[C@@H](c1ccc(NC2Cc3ccc(Cl)c(F)c3C2)nc1)C(F)(F)F (single isomer, unassigned) [Example 338] | 6.02
CN(C(=O)C1CN(C(=O)C2CCO2)C1)[C@@H](c1ccc(NC2Cc3ccc(Cl)c(F)c3C2)cn1)C(F)(F)F (single isomer, unassigned) [Example 386] | 5.57
CN(C(=O)C1CCS(=O)(=O)CC1)[C@@H](c1ccc(NC2Cc3ccc(OC(F)F)cc3C2)cn1)C(F)(F)F (stereo partly drawn) [Example 324, N-((1S)-1-(5-((5-(Difluoromethoxy)-2,3-dihydro-1H-inden-2-yl)amino)pyridin-2-yl)-2,2,2-trifluoroethyl)-N-methyltetrahydro-2H-thiopyran-4-carboxamide 1,1-dioxide] | 6.00
CN(C(=O)C1CCS(=O)(=O)CC1)[C@@H](c1ccc(NC2Cc3cc(F)cc(Cl)c3C2)cn1)C(F)(F)F (single isomer, unassigned) [Example 286] | 6.14
CN1CC(=O)NCC1C(=O)N(C)[C@@H](c1ccc(N[C@H]2Cc3ccccc3C2(C)C)cn1)C(F)(F)F (single isomer, unassigned) [Example 201] | 6.96
